Experimental data from the supplement of paper PMC7017272.
± gives the standard deviation of the averaged measurements.

Experiments:
UT-SCC-24A [1] = assay: relative IC50 (midpoint of the fitted curve; maximal inhibition may be below 50%); higher = less potent; conditions: treatment time: 3 days
Description: (§1)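 HNSCC cell lines (500 cells/well, 384-well) were cultured on plastic, on top of (2D) or embedded (3D) in Matrigel or human leiomyoma matrix Myogel (500 ug/mL; Myogel 3D mixed with rat collagen I). Cells were treated for 3 days with 5 ten-fold concentrations of each drug, and viability was read by CellTiter-Glo. Viability was normalised to DMSO (0% inhibition) and 100 uM benzethonium chloride (100% inhibition) controls and fitted with the FIMM DSRT pipeline to give IC50 (nM), maximal % inhibition and the drug sensitivity score (DSS). Suffixes _1/_2/_3 on drug names are replicates.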

UT-SCC-24A [2] = assay: drug sensitivity score (DSS); higher = more sensitive; conditions: treatment time: 3 days
Description: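 HNSCC cell lines (500 cells/well, 384-well) were cultured on plastic, on top of (2D) or embedded (3D) in Matrigel or human leiomyoma matrix Myogel (500 ug/mL; Myogel 3D mixed with rat collagen I). Cells were treated for 3 days with 5 ten-fold concentrations of each drug, and viability was read by CellTiter-Glo. Suffixes _1/_2/_3 on drug names are replicates.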

UT-SCC-44 [3] = assay: relative IC50 (midpoint of the fitted curve; maximal inhibition may be below 50%); higher = less potent; conditions: treatment time: 3 days
Summary of the method: (§2)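 Three growth formats were used for HPV-negative HNSCC cell lines in 384-well plates at 500 cells/well: bare plastic, wells coated with Matrigel or Myogel (500 µg/mL), and embedding in Matrigel or Myogel plus rat collagen I. Compounds were added at five 10-fold concentrations, and after 3 days CellTiter-Glo 2.0 luminescence was recorded and normalised to vehicle (0.1% DMSO) and cell-killing control wells. IC50, maximal inhibition and drug sensitivity score came from percent-inhibition dose–response fitting in the FIMM pipeline.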

UT-SCC-40 [4] = assay: as above; conditions: treatment time: 3 days
Summary of the method: as §2

UT-SCC-42B [5] = assay: as above; conditions: culture condition: plastic 2D (no matrix); treatment time: 3 days
Summary of the method: as §2

UT-SCC-106A [6] = assay: as above; conditions: treatment time: 3 days
Summary of the method: as §2

UT-SCC-73 [7] = assay: as above; conditions: treatment time: 3 days
Summary of the method: as §2

UT-SCC-14 = assay: drug sensitivity score (DSS); higher = more sensitive; extreme values may be limits of the assay; conditions: treatment time: 3 days
Summary of the method: as §2

UT-SCC-28 = assay: as above; conditions: treatment time: 3 days
Summary of the method: as §2

UT-SCC-81 = assay: as above; conditions: treatment time: 3 days
Summary of the method: as §2

UT-SCC-44 [8] = assay: as above; conditions: treatment time: 3 days
Summary of the method: as §2

UT-SCC-40 [9] = assay: as above; conditions: treatment time: 3 days
Summary of the method: as §2

UT-SCC-42B [10] = assay: as above; conditions: treatment time: 3 days
Summary of the method: as §2

UT-SCC-8 = assay: as above; conditions: treatment time: 3 days
Summary of the method: as §2

UT-SCC-106A [11] = assay: as above; conditions: treatment time: 3 days
Summary of the method: as §2

UT-SCC-73 [12] = assay: as above; conditions: treatment time: 3 days
Summary of the method: as §2

UT-SCC-24B = assay: as above; conditions: treatment time: 3 days
Summary of the method: as §2

UT-SCC-42A = assay: as above; conditions: treatment time: 3 days
Summary of the method: as §2

UT-SCC-24A [13] = assay: maximal % inhibition of viability relative to DMSO; higher = stronger effect; conditions: treatment time: 3 days
Description: as §1

[14] = culture condition: embedded in Myogel + collagen I
[15] = culture condition: on top of Myogel
[16] = culture condition: embedded in Matrigel
[17] = culture condition: on top of Matrigel
[18] = culture condition: plastic 2D (no matrix)

With `CO[C@H]1C[C@@H]2CC[C@@H](C)[C@@](O)(O2)C(=O)C(=O)N2CCCC[C@H]2C(=O)O[C@H]([C@H](C)C[C@@H]2CC[C@@H](OCCO)[C@H](OC)C2)CC(=O)[C@H](C)/C=C(\C)[C@@H](O)[C@@H](OC)C(=O)[C@H](C)C[C@H](C)/C=C/C=C/C=C/1C` [Everolimus] the “relative IC50” value (UT-SCC-24A [1]; [14]) was 0.761 nM, the “relative IC50” value (UT-SCC-24A [1]; [15]) was 10.4 nM and the drug sensitivity score (UT-SCC-24A [2]; [16]) was 3.6 ± 6.2 DSS. For the same molecule, the drug sensitivity score (UT-SCC-24A [2]; [14]) was 6.43 ± 3 DSS, the drug sensitivity score (UT-SCC-24A [2]; [17]) was 2.93 ± 2.3 DSS and the drug sensitivity score (UT-SCC-24A [2]; [15]) was 2.57 ± 0.21 DSS. For the same molecule, the drug sensitivity score (UT-SCC-24A [2]; [18]) was 2.57 ± 0.25 DSS, the “relative IC50” value (UT-SCC-44 [3]; [14]) was 6.3 nM and the “relative IC50” value (UT-SCC-44 [3]; [17]) was 0.89 nM. The “relative IC50” value (UT-SCC-44 [3]; [15]) was 1.1 nM, the “relative IC50” value (UT-SCC-40 [4]; [16]) was 4.61 nM and the “relative IC50” value (UT-SCC-40 [4]; [18]) was 9.09 nM. The “relative IC50” value (UT-SCC-42B [5]) was 20.8 nM, the “relative IC50” value (UT-SCC-106A [6]; [16]) was 28.4 nM and the “relative IC50” value (UT-SCC-106A [6]; [15]) was 8.1 nM. For the same molecule, the “relative IC50” value (UT-SCC-73 [7]; [17]) was 1.92 nM, the “relative IC50” value (UT-SCC-73 [7]; [18]) was 7.59 nM and the drug sensitivity score (UT-SCC-14; [16]) was 8.37 ± 3.1 DSS. For the same molecule, the drug sensitivity score (UT-SCC-14; [14]) was 10.2 ± 3.4 DSS, the drug sensitivity score (UT-SCC-14; [17]) was 5.67 ± 2.2 DSS and the drug sensitivity score (UT-SCC-14; [15]) was 7.77 ± 2.7 DSS. It also gave a drug sensitivity score (UT-SCC-14; [18]) of 7.63 ± 2.4 DSS, a drug sensitivity score (UT-SCC-28; [16]) of 3.57 ± 1.1 DSS and a drug sensitivity score (UT-SCC-28; [14]) of 3.37 ± 1.5 DSS. It also gave a drug sensitivity score (UT-SCC-28; [17]) of 2.63 ± 1.4 DSS, a drug sensitivity score (UT-SCC-28; [18]) of 4.63 ± 1.6 DSS and a drug sensitivity score (UT-SCC-81; [16]) of 7.87 ± 6.4 DSS. It also gave a drug sensitivity score (UT-SCC-81; [14]) of 9.2 ± 0.62 DSS, a drug sensitivity score (UT-SCC-81; [17]) of 5 ± 0.76 DSS and a drug sensitivity score (UT-SCC-81; [15]) of 7.07 ± 1.8 DSS. The drug sensitivity score (UT-SCC-81; [18]) was 7.8 ± 0.44 DSS, the drug sensitivity score (UT-SCC-44 [8]; [16]) was 2.47 ± 3.5 DSS and the drug sensitivity score (UT-SCC-44 [8]; [14]) was 5.4 ± 0.36 DSS. For the same molecule, the drug sensitivity score (UT-SCC-44 [8]; [17]) was 6.83 ± 1.1 DSS, the drug sensitivity score (UT-SCC-44 [8]; [15]) was 7.67 ± 0.12 DSS and the drug sensitivity score (UT-SCC-44 [8]; [18]) was 5.07 ± 2 DSS. The drug sensitivity score (UT-SCC-40 [9]; [16]) was 3.83 ± 6 DSS, the drug sensitivity score (UT-SCC-40 [9]; [14]) was 3.13 ± 3.1 DSS and the drug sensitivity score (UT-SCC-40 [9]; [17]) was 2.1 ± 1.3 DSS. The drug sensitivity score (UT-SCC-40 [9]; [15]) was 1.8 ± 1.9 DSS, the drug sensitivity score (UT-SCC-40 [9]; [18]) was 1.73 ± 1.6 DSS and the drug sensitivity score (UT-SCC-42B [10]; [16]) was 0 DSS. The drug sensitivity score (UT-SCC-42B [10]; [17]) was 0.733 ± 0.67 DSS, the drug sensitivity score (UT-SCC-42B [10]; [15]) was 0.433 ± 0.38 DSS and the drug sensitivity score (UT-SCC-42B [10]; [18]) was 0.133 ± 0.12 DSS. It also gave a drug sensitivity score (UT-SCC-8; [16]) of 5.3 ± 2.3 DSS, a drug sensitivity score (UT-SCC-8; [14]) of 4.2 ± 6.5 DSS and a drug sensitivity score (UT-SCC-8; [17]) of 5.8 ± 6 DSS. The drug sensitivity score (UT-SCC-8; [15]) was 7.9 ± 6 DSS, the drug sensitivity score (UT-SCC-8; [18]) was 6.57 ± 3.2 DSS and the drug sensitivity score (UT-SCC-106A [11]; [16]) was 1.27 ± 0.31 DSS. For the same molecule, the drug sensitivity score (UT-SCC-106A [11]; [14]) was 2.77 ± 0.81 DSS, the drug sensitivity score (UT-SCC-106A [11]; [17]) was 1.53 ± 1.4 DSS and the drug sensitivity score (UT-SCC-106A [11]; [15]) was 1.33 ± 0.6 DSS. It also gave a drug sensitivity score (UT-SCC-106A [11]; [18]) of 7.3 ± 6 DSS, a drug sensitivity score (UT-SCC-73 [12]; [16]) of 2.37 ± 1.2 DSS and a drug sensitivity score (UT-SCC-73 [12]; [14]) of 8.4 ± 7.2 DSS. It also gave a drug sensitivity score (UT-SCC-73 [12]; [17]) of 3.93 ± 1.3 DSS, a drug sensitivity score (UT-SCC-73 [12]; [15]) of 4.27 ± 1.7 DSS and a drug sensitivity score (UT-SCC-73 [12]; [18]) of 3.23 ± 0.51 DSS. It also gave a drug sensitivity score (UT-SCC-24B; [16]) of 1.17 ± 1.5 DSS, a drug sensitivity score (UT-SCC-24B; [14]) of 5.5 ± 2.1 DSS and a drug sensitivity score (UT-SCC-24B; [17]) of 1.93 ± 1.7 DSS. It also gave a drug sensitivity score (UT-SCC-24B; [15]) of 4.07 ± 1.6 DSS, a drug sensitivity score (UT-SCC-24B; [18]) of 2.43 ± 1.4 DSS and a drug sensitivity score (UT-SCC-42A; [16]) of 0.933 ± 1.1 DSS. The drug sensitivity score (UT-SCC-42A; [14]) was 3.87 ± 0.76 DSS, the drug sensitivity score (UT-SCC-42A; [17]) was 2.6 ± 0.4 DSS and the drug sensitivity score (UT-SCC-42A; [15]) was 3.27 ± 0.83 DSS. The drug sensitivity score (UT-SCC-42A; [18]) was 2.07 ± 0.91 DSS, the “maximal % inhibition of viability” value (UT-SCC-24A [13]; [16]) was 51.3 ± 40% and the “maximal % inhibition of viability” value (UT-SCC-24A [13]; [14]) was 33.2 ± 13%. The “maximal % inhibition of viability” value (UT-SCC-24A [13]; [17]) was 31.5 ± 13%, the “maximal % inhibition of viability” value (UT-SCC-24A [13]; [15]) was 26.8 ± 1.4% and the “maximal % inhibition of viability” value (UT-SCC-24A [13]; [18]) was 28.2 ± 2.9%.
